Like-named read-outs stand apart in the source and are kept apart here.

The target of assay [1] is T1, human BRD4 bromodomain II (Homo sapiens, UniProt O60885).
T1 construct: human BRD4 bromodomain II [based on Genbank NM_058243, residues 349-460]; host or cells: E. coli
The experiment in a line: Bromodomain binding assay (AlphaScreen), BRD4 BDII. Put shortly: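 Read-out is AlphaScreen signal (ex 680 nm, em 520-620 nm) from streptavidin donor beads on a biotinylated acetylated histone H4 (aa 1-21) peptide and nickel acceptor beads on the His6-tagged bromodomain. IC50 values come from curve fits of percentage peptide binding against compound concentration.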
Background: Bead proximity is the source of the signal in Alpha formats.

Assay [2] deals with human SKM-1 acute myeloid leukemia cells. As to the kind of experiment: SKM-1 antiproliferation cell-based assay (ATPlite). As to conditions: Homo sapiens. Put shortly:
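Log-phase cells in RPMI 1640/15% FBS were seeded at 34722 cells/mL and exposed for 4 days to nine-concentration DMSO serial dilutions in triplicate. Viability was read as ATP luminescence (ATPlite 1step), and IC50 values came from variable-slope non-linear regression.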
In general terms: In ATP-based viability assays light output follows the ATP content of the culture.

Setting [3] is: AlphaScreen assay, Table C2, read-out: BRD4 BDII IC50.
The mark [4] stands for this setting: SKM-1, 96 h, SKM-1 antiproliferation assay, 4 days, Table C2.
Where [5] appears, read: BRD4 BDII AlphaScreen assay, read-out: BRD4 BD2 IC50.
[6] abbreviates: SKM-1, SKM-1 antiproliferation assay.

For `Cn1ccn(-c2ccc(-c3cc(F)cc(-c4cccc(C#CC(C)(C)N)c4)c3O)cc2Cl)c1=O` [Example 771, 1-(3″-(3-amino-3-methylbut-1-yn-1-yl)-3-chloro-5′-fluoro-2′-hydroxy-[1,1′:3′,1″-terphenyl]-4-yl)-3-methyl-1H-imidazol-2(3H)-one], the IC50 in assay [1] (setting [3]) lay within 1 to 10 nM. In assay [2] (setting [4]), this molecule came in with a GI50 of 30 to 300 nM.
Turning to `Cc1cc(-c2cccc(N3CCN(C(C)(C)C)CC3)c2)c(O)c(-c2ccc(-n3ccn(C)c3=O)c(Cl)c2)c1` [Example 1016, 1-(3″-(4-(tert-butyl)piperazin-1-yl)-3-chloro-2′-hydroxy-5′-methyl-[1,1′:3′,1″-terphenyl]-4-yl)-3-methyl-1H-imidazol-2(3H)-one], the IC50 in assay [1] (setting [5]) is 0.01 to 1 nM. The GI50 in assay [2] (setting [6]) is 0.3 to 30 nM.
On to `CC1(C)CCN(c2ccc(-c3cccc(-c4ccnc(N5CCNCC5)c4)c3O)cc2Cl)C1=O` [Example 329, 1-(3-chloro-2′-hydroxy-3′-(2-(piperazin-1-yl)pyridin-4-yl)-[1,1′-biphenyl]-4-yl)-3,3-dimethylpyrrolidin-2-one], for which the IC50 in assay [1] (setting [3]) was more than 100 nM. In assay [2] (setting [4]), this molecule displayed a GI50 of 300 to 3000 nM.
In the same order, the values of `CC(=O)Nc1ncc(-c2cc(F)cc(-c3ccc(N4CCN(C)C4=O)c(Cl)c3)c2O)cc1N1CCNCC1` [Example 389, N-(5-(3′-chloro-5-fluoro-2-hydroxy-4′-(3-methyl-2-oxoimidazolidin-1-yl)-[1,1′-biphenyl]-3-yl)-3-(piperazin-1-yl)pyridin-2-yl)acetamide] are 1 to 10 nM and 30 to 300 nM.
In the case of `C[C@@H]1CN(c2cc(-c3cc(F)cc(-c4ccc(-n5ccn(C)c5=O)c(Cl)c4)c3O)ccn2)C[C@H](C)N1` [Example 555, 1-(3-chloro-3′-(2-((3R,5S)-3,5-dimethylpiperazin-1-yl)pyridin-4-yl)-5′-fluoro-2′-hydroxy-[1,1′-biphenyl]-4-yl)-3-methyl-1H-imidazol-2(3H)-one], the IC50 in assay [1] (setting [3]) was in the range of 1 to 10 nM. In assay [2] (setting [4]), this molecule returned a GI50 of 0.3 to 30 nM.
In the case of `Cc1cc(-c2ccc(-n3ccn(C)c3=O)c(Cl)c2)c(O)c(-c2ccc(Cl)c(N3CCN(C(C)(C)C)CC3)c2)n1` [Example 1013, 1-(4-(2-(3-(4-(tert-butyl)piperazin-1-yl)-4-chlorophenyl)-3-hydroxy-6-methylpyridin-4-yl)-2-chlorophenyl)-3-methyl-1H-imidazol-2(3H)-one], the half-inhibitory concentration (IC50) in assay [1] (setting [5]) was 1 to 10 nM. The GI50 in assay [2] (setting [6]) is 0.3 to 30 nM.
For `Cn1ccn(-c2ccc(-c3cc(F)cc(-c4cccc(-c5cccc(CO)c5)c4)c3O)cc2Cl)c1=O` [Example 865], the IC50 in assay [1] (setting [5]) lay in the range of 10 to 100 nM. In assay [2] (setting [6]), this molecule displayed a GI50 of 300 to 3000 nM.
Turning to `Cn1ccn(-c2ccc(-c3cc(Cl)cc(-c4cncc(N5CC[C@H](N)C5)c4)c3O)cc2Cl)c1=O` [Example 510, (S)-1-(3′-(5-(3-aminopyrrolidin-1-yl)pyridin-3-yl)-3,5′-dichloro-2′-hydroxy-[1,1′-biphenyl]-4-yl)-3-methyl-1H-imidazol-2(3H)-one], the IC50 in assay [1] (setting [3]) lay within 10 to 100 nM. For the same molecule, in assay [2] (setting [4]), the GI50 lay in the range of 30 to 300 nM.
The like results for `Cc1cc(-c2ccc(-n3ccn(C)c3=O)c(Cl)c2)c(O)c(-c2cc(N3CC[C@H](N)C3)c3nccnc3c2)c1` [Example 575] were, in that order, 0.01 to 1 nM and 0.3 to 30 nM.
The like results for `CCC1CCN(c2ccc(-c3cccc(-c4ccnc(N5CCNCC5)c4)c3O)cc2Cl)C1=O` (stereo not shown) [Example 345, 1-(3-chloro-2′-hydroxy-3′-(2-(piperazin-1-yl)pyridin-4-yl)-[1,1′-biphenyl]-4-yl)-3-ethylpyrrolidin-2-one] were, in that order, more than 100 nM and 300 to 3000 nM.
The like results for `CN1CCN(c2ccc(-c3cc(Cl)cc(-c4ccnc(N5CCNCC5)c4)c3O)cc2Cl)C1=O` [Example 295, 1-(3,5′-dichloro-2′-hydroxy-3′-(2-(piperazin-1-yl)pyridin-4-yl)-[1,1′-biphenyl]-4-yl)-3-methylimidazolidin-2-one] were, in that order, 1 to 10 nM and 30 to 300 nM.
For `CC(=O)Nc1ccc(-c2cccc(-c3cc(F)nc(N4CCNCC4)c3)c2O)cc1F` [Example 291, N-(3-fluoro-3′-(2-fluoro-6-(piperazin-1-yl)pyridin-4-yl)-2′-hydroxy-[1,1′-biphenyl]-4-yl)acetamide], in assay [1] (setting [3]), the IC50 was in the range of 10 to 100 nM. In assay [2] (setting [4]), the GI50 is 300 to 3000 nM.
In the same order, the values of `Cn1ccn(-c2ccc(-c3cc(F)cc(-c4cc(N5CC6CC5CN6)c5cn[nH]c5c4)c3O)cc2Cl)c1=O` (stereo not shown) [Example 599, 1-(3′-(4-(2,5-diazabicyclo[2.2.1]heptan-2-yl)-1H-indazol-6-yl)-3-chloro-5′-fluoro-2′-hydroxy-[1,1′-biphenyl]-4-yl)-3-methyl-1H-imidazol-2(3H)-one] are 1 to 10 nM and 30 to 300 nM.
For `CC(C)N1CCN(c2cc(-c3cc(F)cc(-c4ccc(-n5ccn(C)c5=O)c(Cl)c4)c3O)ccc2C(F)F)CC1` [Example 814, 1-(3-chloro-4″-(difluoromethyl)-5′-fluoro-2′-hydroxy-3″-(4-isopropylpiperazin-1-yl)-[1,1′:3′,1″-terphenyl]-4-yl)-3-methyl-1H-imidazol-2(3H)-one], the IC50 in assay [1] (setting [3]) lay within 0.01 to 1 nM. Besides, the GI50 in assay [2] (setting [4]) lay in the range of 0.3 to 30 nM.
In the same order, the values of `O=C1CCN1c1ccc(-c2cc(F)cc(-c3ccnc(N4CCNCC4)c3)c2O)cc1Cl` [Example 417, 1-(3-chloro-5′-fluoro-2′-hydroxy-3′-(2-(piperazin-1-yl)pyridin-4-yl)-[1,1′-biphenyl]-4-yl)azetidin-2-one] are 1 to 10 nM and 300 to 3000 nM.
The like results for `O=c1ccccn1-c1ccc(-c2cc(F)cc(-c3ccnc(N4CCNCC4)c3)c2O)cc1Cl` [Example 502, 1-(3-chloro-5′-fluoro-2′-hydroxy-3′-(2-(piperazin-1-yl)pyridin-4-yl)-[1,1′-biphenyl]-4-yl)pyridin-2(1H)-one] were, in that order, more than 100 nM and not below 3000 nM.
In the same order, the values of `Cn1ccn(-c2ccc(-c3cc(F)cc(-c4cncc(N5CC[C@@](C)(O)C5)c4)c3O)cc2Cl)c1=O` [Example 728, (R)-1-(3-chloro-5′-fluoro-2′-hydroxy-3′-(5-(3-hydroxy-3-methylpyrrolidin-1-yl)pyridin-3-yl)-[1,1′-biphenyl]-4-yl)-3-methyl-1H-imidazol-2(3H)-one] are 1 to 10 nM and 0.3 to 30 nM.
For the molecule `Cn1ccn(-c2ccc(-c3cc(F)cc(-c4cncc(N5CCC(N)CC5)c4)c3O)cc2Cl)c1=O` [Example 459, 1-(3′-(5-(4-aminopiperidin-1-yl)pyridin-3-yl)-3-chloro-5′-fluoro-2′-hydroxy-[1,1′-biphenyl]-4-yl)-3-methyl-1H-imidazol-2(3H)-one], the IC50 in assay [1] (setting [3]) lay in the range of 1 to 10 nM. The GI50 in assay [2] (setting [4]) lay within 0.3 to 30 nM.
The like results for `Cn1ccn(-c2ccc(-c3cc(F)cc(-c4cncc(N5CC[C@H](N)C5)c4)c3O)cc2Cl)c1=O` [Example 484, (S)-1-(3′-(5-(3-aminopyrrolidin-1-yl)pyridin-3-yl)-3-chloro-5′-fluoro-2′-hydroxy-[1,1′-biphenyl]-4-yl)-3-methyl-1H-imidazol-2(3H)-one] were, in that order, 1 to 10 nM and 0.3 to 30 nM.
Turning to `Cn1ccn(-c2ccc(-c3cc(F)cc(-c4ccnc(N5CCN[C@H](C(C)(C)O)C5)c4)c3O)cc2Cl)c1=O` [Example 639, (S)-1-(3-chloro-5′-fluoro-2′-hydroxy-3′-(2-(3-(2-hydroxypropan-2-yl)piperazin-1-yl)pyridin-4-yl)-[1,1′-biphenyl]-4-yl)-3-methyl-1H-imidazol-2(3H)-one], the IC50 in assay [1] (setting [3]) lay within 0.01 to 1 nM. In addition, in assay [2] (setting [4]), the GI50 lay in the range of 0.3 to 30 nM.

As usually defined, the IC50 is the concentration at which inhibition is half-maximal. Broadly, the GI50 is the concentration at which growth is held to half of that of the control.
